Reference: ChEMBL document CHEMBL4513101, “Naegleria gruberi Pathogen Box compounds screening” (2021)
Calls of active or inactive are those of the source. Rule as the data show it: active = inhibition of 80% or more and inactive = less.

These molecules were tested on Naegleria gruberi (assay: microbe, parasite or virus in culture). Details: NEG-M, CONC 10 uM.
Type: functional
Description: Growth inhibiting activity of Naegleria gruberi in vitro

Molecule	inhibition at 10 µM
CO[C@@H]1CN(c2ccc(C#CC3(O)CN4CCC3CC4)c(Cc3ccccc3)n2)C[C@H]1O (stereo not given in full)	0% (not active)
O=C1O[C@@H](COc2ccon2)CN1c1cc(F)c(C2=CCN(Cc3ccccc3)CC2)c(F)c1	4.4% (not active)
CC(C)(C)c1cc(C(=O)N2CCN(c3nccnc3C#N)CC2)n(Cc2ccccc2)n1	31.6% (not active)
CCC(NC(=O)c1ccccc1NC(=O)c1ccc(C)cc1)C(=O)OC (stereo not given)	4.8% (not active)
CCOC(=O)c1cc(-c2csc(Nc3c(C)cc(C)cc3C)n2)on1	33.4% (not active)
CCOc1ccc(OCC(=O)Nc2cc(C)cc(C)c2)cc1	0% (not active)
Cc1nn(C(=O)Nc2cccc(C(F)(F)F)c2)c(C)c1Sc1ncccn1	16.7% (not active)
COc1ccc(C(=N)N)cc1-c1cn(-c2ccc(C(=N)N)cc2)nn1	22.8% (not active)
FC(F)(F)c1ccc(N(c2cccnc2)C2CCN(c3ccc(C(F)(F)F)cn3)CC2)cc1	80.4% (active)
CCCCN(CCCC)c1c(C#N)cc(S(=O)(=O)Nc2ccccc2)cc1C#N	23.9% (not active)
O=C(Nc1cccc(Cl)c1)c1cnc(N2CCN(c3ccncc3)CC2)c(Cl)c1	39.6% (not active)
O=C1O[C@@H](CO)CN1c1cc(F)c(C2=CCN(Cc3ccccc3)CC2)c(F)c1	8.3% (not active)
CCOc1ccc(-c2nc(NC(=O)CS(=O)(=O)c3ccccc3)sc2C)cc1	50.9% (not active)
c1ccc(C[C@@H]2CN(c3nccc(Oc4ccc(-n5ccnc5)cc4)n3)CCN2)cc1	26.4% (not active)
Nc1cccnc1Nc1ccc(Cl)cc1	4.1% (not active)
CC[C@@H]([C@H](C)O)n1ncn(-c2ccc(N3CCN(c4ccc(OC[C@@H]5CO[C@@](Cn6cncn6)(c6ccc(F)cc6F)C5)cc4)CC3)cc2)c1=O [POSACONAZOLE]	84.8% (active)
COc1ccc(-c2nnc3ccc(-c4cccc(C(C)C)c4)cn23)cc1OC	26.7% (not active)
COc1cc(C2=NCCN2)ccc1-c1cn(-c2cccc(C3=NCCN3)c2)nn1	20.1% (not active)
CC(=O)NCC1CN(c2ccc(-c3ccc(CO)cc3)c(F)c2)C(=O)O1 (stereo not given)	35.1% (not active)
CCc1ccc(S(=O)(=O)Nc2cc(CN3CCN(CCC(C)C)CC3)ccc2C)cc1	48.7% (not active)
Cc1ccc2nc(C)c(-c3ccn(Cc4ccccc4)n3)n2c1	9.5% (not active)
Cc1nc(-c2ccccn2)nc(N2CCC(Cc3ccccc3)C2)c1Cl (stereo not given)	38.3% (not active)

Molecule	inhibition at 10 µM
CC1CC1C(=O)NC1CCN(CC2(c3ccccc3)CCCCC2)CC1 (stereo not given)	43.8% (not active)
O=C(CN1CCOCC1)Nc1ccc2ncnc(Nc3ccc(OCc4cccc(F)c4)c(Cl)c3)c2c1	17% (not active)
Cc1cc(C(=O)Nc2cnn(Cc3ccc(Cl)cc3Cl)c2)no1	65% (not active)
CS(=O)(=O)c1ccccc1C(=O)N(Cc1ccccc1)c1ccccc1	31.8% (not active)
c1ccc(-c2cc(N3CCCCC3)c3ccccc3n2)nc1	20.7% (not active)
NCC(=O)N1CCn2c(nc(-c3ccccc3)c2Nc2ccc3c(c2)OCO3)C1	8.3% (not active)
Nc1ncnc2c1c(Cc1cccc3ccccc13)nn2CC1CCNCC1	11.4% (not active)
Cc1nn(C)c(C)c1NS(=O)(=O)c1c(Cl)cc(-c2ccnc(N3CCNCC3)c2)cc1Cl	58.2% (not active)
CCc1nc2ccc(C(=O)NCc3ccc4c(c3)OCO4)cn2c1N(C)Cc1cccs1	36% (not active)
CCCn1c(CNc2ccccc2O)nc2ccccc21	39.9% (not active)
CC(=O)NCC1CN(c2ccc(-c3ccc(CNCc4cn[nH]n4)cc3)c(F)c2)C(=O)O1 (stereo not given)	26.2% (not active)
COc1cccn2c(C(=O)N3CCCCC3)c(C(F)(F)F)nc12	17% (not active)
COc1ccc(N(CCc2cccc(C)n2)C(C)=O)cc1	19.6% (not active)
NCCC(O)C(=O)N[C@@H]1C[C@H](N)[C@@H](OC2O[C@H](CN)[C@@H](O)[C@H](O)[C@H]2O)[C@H](O)C1OC1O[C@H](CO)[C@@H](O)[C@H](N)[C@H]1O (stereo not given in full)	0% (not active)
COc1ccc(-c2nc(-c3cccc(NC(=O)Cc4ccc(F)cc4)c3)no2)cc1OC	35.4% (not active)
Cc1c[nH]c(CCNC(=O)c2cc(-c3ccc(Cl)cc3)cs2)n1	38.3% (not active)
NCCN(C(=O)c1ccc(Cl)cc1Cl)c1ccc(OCc2ccc(Cl)cc2)cc1	29.6% (not active)
CC[C@H](CO)NCCN[C@H](CC)CO	26.7% (not active)
O=C(CCC1CCCCC1)Nc1cccc(-c2nnc(-c3ccco3)o2)c1	30% (not active)
Cc1ccc(NC(=O)c2cc(S(=O)(=O)NC(C)(C)C)ccc2C)nc1	34.7% (not active)
O=C(NCCN1CCCC1)c1cc(NCCN2CCOCC2)nc2ccc(Cl)cc12	11% (not active)
Cc1ncc(-c2ccnc(Nc3ccc(S(C)(=O)=O)cc3)n2)n1C(C)C [AZD-5438]	47.7% (not active)

Molecule	inhibition at 10 µM
CO[C@H]1/C=C\O[C@@]2(C)Oc3c(C)c(O)c4c(O)c(/c(=C/NN5CCN(C)CC5)c(O)c4c3C2=O)=N\C(=O)/C(C)=C\C=C/[C@H](C)[C@H](O)[C@@H](C)[C@@H](O)[C@@H](C)[C@H](OC(C)=O)[C@@H]1C	0% (not active)
CC1COC2(CCN(c3nc(=O)c4cc(C(F)(F)F)cc([N+](=O)[O-])c4s3)CC2)O1 (stereo not given)	38.4% (not active)
c1ccc(Oc2ccc(-c3cc(N4CCNCC4)[nH]n3)cc2)cc1	0% (not active)
CC(C)NCC(=O)Nc1cccc(C(=O)Nc2cccc(C(F)(F)F)c2)c1	4.8% (not active)
CCN(CC)CCCCCCNc1cc(OC)cc2c(C)ccnc12 [SITAMAQUINE]	40.1% (not active)
O=C(NC1CC1)c1ccc(CSCc2ccccc2Cl)o1	5.6% (not active)
O=C(C1CCN(c2nnc(-n3cccc3)s2)CC1)N1CCC(Cc2ccccc2)CC1	31.1% (not active)
Cc1ccc2oc(-c3cc(NC(=O)Cc4ccccc4)ccc3Cl)nc2c1	44.5% (not active)
COc1nc2ccc(Br)cc2cc1[C@@H](c1ccccc1)[C@@](O)(CCN(C)C)c1cccc2ccccc12 [BEDAQUILINE]	56.3% (not active)
O=C(C(Cc1c[nH]c2ccccc12)NS(=O)(=O)c1ccc(Cl)cc1)N1CCCCC1 (stereo not given)	23.3% (not active)
Clc1cccc(CO[C@H]2CCc3ccccc3[C@@H]2n2ccnn2)c1	12.6% (not active)
c1coc(CNc2nc(N3CCCCC3)nc3ccccc23)c1	56.5% (not active)
Cn1c(=O)c2c(S(C)(=O)=O)snc2n(C)c1=O	72.3% (not active)
COc1cccc(CC(=O)N2CCC(n3c(C)nc4ccc(F)cc43)CC2)c1	19.3% (not active)
OCCc1ccc(Nc2nccc(-c3nnc4ccccn34)n2)cc1	18.7% (not active)
CC(C)(C)CN1C(=O)C(c2ccccc2)(c2ccccc2)N=C1N	19.2% (not active)
NC(=O)c1cc(-c2ccsc2)ccc1OCCOc1ccccc1	43.7% (not active)
Cc1[nH]c2ccccc2c1C(c1cccs1)N1CCN(C)CC1 (stereo not given)	23.9% (not active)
COc1cccc(-n2nnnc2S(=O)(=O)Cc2ccccc2)c1	85.8% (active)
O=C(NCc1ccco1)N1CCN(Cc2ccc(Cl)s2)CC1	39.6% (not active)

These molecules were tested on Naegleria gruberi (assay: not given). Details: NEG-M, at 10 µM.

Molecule	inhibition
MMV688978	60.5%
